Active and inactive are the calls of the source. The calls are words filed in the database; no cut-off is given here.
Columns and labels:
Mus musculus [1] = experiment: Antinociceptive activity against formalin-induced pain in ip dosed ddY mouse assessed as reduction of paw licking response during neurogenic phase pretreated for 10 mins before formalin challenge; type: functional
Mus musculus [2] = experiment: Antinociceptive activity against formalin-induced pain in ddY mouse assessed as reduction of paw licking response during neurogenic phase at 20 mg/kg, ip pretreated for 10 mins before formalin challenge in presence of Naloxone; type: functional, organism-based; parameters: dose 20 mg/kg
Mus musculus [3] = experiment: Antinociceptive activity against formalin-induced pain in ip dosed ddY mouse assessed as reduction of paw licking response during inflammatory phase pretreated for 10 mins before formalin challenge; type: functional
Mus musculus [4] = experiment: Antinociceptive activity against formalin-induced pain in ip dosed ddY mouse assessed as reduction of paw licking response during inflammatory phase pretreated for 10 mins before formalin challenge relative to morphine; type: functional
Mus musculus [5] = experiment: Antinociceptive activity against formalin-induced pain in ip dosed ddY mouse assessed as reduction of paw licking response during neurogenic phase pretreated for 10 mins before formalin challenge relative to morphine; type: functional

With `CN1CC[C@]23c4c5ccc(O)c4O[C@H]2[C@@H](O)C=C[C@H]3[C@H]1C5` [MORPHINE] the ED50 (Mus musculus [1]) was 18.4 µmol/kg, the Activity (Mus musculus [2]) was “inactive” and the ED50 (Mus musculus [3]) was 10.4 µmol/kg.

With `COc1cc([C@H]2[C@H](C(=O)O[C@@H]3C[C@@H]4[C@@H](CN(C)C[C@@H]4C)[C@@H]3C)[C@H](c3ccc(O)c(OC)c3)[C@H]2C(=O)O[C@@H]2C[C@@H]3[C@@H](CN(C)C[C@@H]3C)[C@@H]2C)ccc1O` [INCARVILLATEINE] the Activity (Mus musculus [4]) was 1.33, the Activity (Mus musculus [1]) was “Dose-dependent effect” and the ED50 (Mus musculus [1]) was 17.4 µmol/kg. The Activity (Mus musculus [3]) was “Dose-dependent effect”, the ED50 (Mus musculus [3]) was 7.8 µmol/kg and the Activity (Mus musculus [5]) was 1.06.
